Measurements taken from patent US7049331B2, “1,2,4-thiadiazole derivatives as melanocortin receptor modulators” (Ortho-McNeil Pharmaceutical, Inc., priority 2001, dated 2006).
pEC50, pIC50: −log10 of the molar value.

How the values were obtained:
human sebocytes [1] = assay: Visual observation of lipid granule formation in sebocytes; assay type: cell-based
Protocol: Semiconfluent cultures of 3T3 mouse fibroblasts (Swiss Albino mouse, ATCC CCL-92) were treated with mitomycin C (4 μg/ml) for 3 hours, trypsinized and seeded at a density of 2.5×10^5/9.5 cm^2 tissue culture plate in Dulbeccos Minimal Essential Medium (DMEM) containing 10% Colorado Calf Serum, PNC (100U/ml), STM (100 μg/ml), L glutamine (0.3 mg/ml), sodium pyruvate (1 mM) and nonessential amino acids (100 μM). The cells were incubated at 37° C. for 24 hours prior to their use as a feeder layer for sebocytes.
Human sebocytes were isolated from Dermatome shavings of postoperative pieces of human skin at 0.4–0.8 mm depths (this part of the skin was previously shown to be enriched in sebaceous glands). Shavings so obtained were treated with 1% Dispase in Iscoves medium containing 10% serum for 20 min at 37° C. The tissue was then placed in 0.3% trypsin/1% EDTA in Phosphate Buffered Saline (PBS) for 10 minutes at 37° C. Following this incubation the cells were gently scraped from the tissue in Growth medium (GM) containing DMEM/F12 media mixture (3:1), supplemented with 8% heat inactivated FBS, 2% heat inactivated human serum (HS), 1 mM sodium pyruvate, epidermal growth factor (10 ng/ml), insulin (10 μg/ml), hydrocortisone (0.4 μg/ml) and +/−cholera toxin (100 μg/ml), L-glutamine and antibiotics. Cells so obtained were filtered through nylon mesh ([…]), centrifuged at 750 RPM, re-suspended in GM and counted.
Resultant cells from the above isolation procedure were plated on the 3T3 feeder layers at 2×10^5/9.5 cm^2 in growth medium and maintained at 37° C. and 5% CO2 for 3 days (Phase I). Following the initial growth period they were transferred to a transition medium (TM) that consisted of DMEM/F12 media supplemented with 1 mM sodium pyruvate, insulin ([…]), transferrin ([…]) and selenium (5.5 μg/ml) (ITS), 2% heat inactivated FBS and 2% heat inactivated human serum as well as +/−cholera toxin (ch.t.) (100 μg/ml), L-glutamine and antibiotics (Phase II). Three days later the cells were changed to differentiation medium (DM), DMEM/F12 supplemented with ITS, 3,3′,5-triido-L-thyronine sodium (3 nM), 1%(v/v) trace element mix and the choice of differentiation agent i.e. bovine pituitary extract (10 μg/ml). This medium was changed every 3 days (Phase III).
Hormones, mixture of hormones i.e. bovine pituitary extract or compounds to be tested were added to the culture at the beginning of phase III. Two criteria were used to evaluate the effect of these materials on sebaceous cultures: 1) visual observations and 2) evaluation of sebaceous lipid accumulation and synthesis. The evaluation of lipid accumulation completed using the Nile red method. This method relies on visualization of neutral lipids by Nile red and quantitation by reading of fluorescence at 535 nm excitation, 580 nm emission using a plate reader. The lipid synthesis was evaluated by radioactive labeling using ^14C acetate and quantified by Bio Rad Phosphoimager (Molecular Imager, FX) using 4.1 Software.
Quantitation of accumulation/inhibition of neutral lipids in sebocytes was accomplished by Nile red binding assay. Briefly, following exposure of sebocytes to test compounds, the cells were allowed to interact with 1 μM Nile red in Hanks buffered saline solution containing DMSO and Pluronic F127. After 4 hours of incubation, washing and incubation overnight, the fluorescence was read at 535 excitation and 580 emission using a fluorescence plate reader.
Following the procedure described above, select compounds of the present invention were tested for visual and Nile red evaluation of lipid accumulation, with results as listed in Table 9.
Following the procedure described above, select compounds of the present invention were tested for their inhibitory effect on differentiation of human sebocytes. […]

human sebocytes [2] = assay: Nile red evaluation of lipid accumulation in sebocytes; assay type: cell-based; conditions: for inhibition at 0.4 µM: read-out: % Inh 0.4 μM (lipid accumulation, Nile red); for inhibition at 0.8 µM: read-out: % Inh 0.8 μM (lipid accumulation, Nile red)
Protocol: The cells were incubated at 37° C. for 24 hours prior to their use as a feeder layer for sebocytes. Human sebocytes were isolated from Dermatome shavings of postoperative pieces of human skin at 0.4-0.8 mm depths (this part of the skin was previously shown to be enriched in sebaceous glands). […] This medium was changed every 3 days (Phase III). Hormones, mixture of hormones i.e. bovine pituitary extract or compounds to be tested were added to the culture at the beginning of phase III. […] The evaluation of lipid accumulation completed using the Nile red method. This method relies on visualization of neutral lipids by Nile red and quantitation by reading of fluorescence at 535 nm excitation, 580 nm emission using a plate reader. The lipid synthesis was evaluated by radioactive labeling using ^14C acetate and quantified by Bio Rad Phosphoimager (Molecular Imager, FX) using 4.1 Software. […] Quantitation of accumulation/inhibition of neutral lipids in sebocytes was accomplished by Nile red binding assay. Briefly, following exposure of sebocytes to test compounds, the cells were allowed to interact with 1 μM Nile red in Hanks buffered saline solution containing DMSO and Pluronic F127. After 4 hours of incubation, washing and incubation overnight, the fluorescence was read at 535 excitation and 580 emission using a fluorescence plate reader. […] Following the procedure described above, select compounds of the present invention were tested for visual and Nile red evaluation of lipid accumulation, with results as listed in Table 9.

MC5-R = MC5-R (Homo sapiens, UniProt P33032); assay: MC5-R binding
[3] = molecular target: T1, melanocortin MC-4 receptor (Homo sapiens, UniProt P32245); assay: Melanocortin MC-4 Receptor Binding Assay (SPA)
T1 construct: purchased Receptor Biology Inc
How it was run: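 Membranes bound to WGA SPA beads were incubated 16 h at 25° C with 40 pM ¹²⁵I-NDP-MSH and test compound (1 mM stock in 30% DMSO-HEPES pH 7.4). Nonspecific binding set with 1 μM NDP-MSH or α-MSH; percent inhibition from bound cpm.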

rabbit adipocytes = conditions: read-out: EC50 lipolytic activity; cited from earlier work
[4] = system: isolated human and non-human primate adipocytes; conditions: concentrations as high as 1 μM; cited from earlier work
rat adipocytes = conditions: read-out: EC50 lipolytic activity; cited from earlier work
[5] = system: Male Long-Evans rats, facial nerve compression; assay: In vivo Facial Nerve Compression Model; set-up: species or system rat; conditions: test compounds p.o. 20 mg/kg bid, αMSH s.c. 70 ug/each 48 hr
Text: The ability of test compound to provide neuro-protective or neuro-regenerative effects was investigated in a facial nerve compression model. Facial nerve motor axons arise exclusively from neurons within the pons in a well-defined nucleus. Facial nerve compression results in retrograde reactions proximal to the lesion site and Wallerian degeneration at its distal part, which causes diminished whisker movement on the lesioned side.
Male Long-Evans rats (150–180 g) were anesthetized with 3–5% isoflorane for induction and 2% for maintenance during the surgical procedures. The right facial nerve was exposed and compressed with forceps for 30 sec at its exit from the stylomastoid foramen. The left facial nerve was sham-operated and served as an internal control. […] The following morphological abnormalities associated with the functional deficit were observed:
After recovery from anesthesia, the rats were randomly divided into groups for dosing with vehicle, αMSH or test compound, with 6 animals per group. αMSH (s.c., 70 ug/each 48 hr) was used as a positive control. Test compounds were dosed p.o. at 20 mg/kg bid for 14 days. Restoration of whisker movement was monitored daily after the operation using two criteria:
(1) frequency of whisker movement on the lesioned side relative to the opposite side (sham-operated) which served as the baseline control
(2) semi-quantitative measurements (0 to 4+) on strength of the whisker muscles, characterized based on observation of the percentage of moved whiskers, muscle tone of whisker muscles, and the position of the nose. For all observations, the experimental design was blind to the behavioral observer.
The recovery rate of the whisker movement was expressed as percentage of its own internal control (sham-operated), as listed in Table 8.

MC5-R, sequence (P33032 whole entry): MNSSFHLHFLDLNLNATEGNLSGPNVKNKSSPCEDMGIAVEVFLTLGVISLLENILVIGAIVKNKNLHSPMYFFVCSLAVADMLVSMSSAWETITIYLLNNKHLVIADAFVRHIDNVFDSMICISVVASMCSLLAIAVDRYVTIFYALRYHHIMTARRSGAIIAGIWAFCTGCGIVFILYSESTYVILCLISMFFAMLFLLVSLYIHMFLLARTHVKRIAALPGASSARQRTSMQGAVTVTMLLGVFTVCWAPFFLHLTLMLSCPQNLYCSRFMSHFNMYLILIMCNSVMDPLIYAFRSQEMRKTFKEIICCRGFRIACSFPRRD
T1 sequence (P32245 whole entry): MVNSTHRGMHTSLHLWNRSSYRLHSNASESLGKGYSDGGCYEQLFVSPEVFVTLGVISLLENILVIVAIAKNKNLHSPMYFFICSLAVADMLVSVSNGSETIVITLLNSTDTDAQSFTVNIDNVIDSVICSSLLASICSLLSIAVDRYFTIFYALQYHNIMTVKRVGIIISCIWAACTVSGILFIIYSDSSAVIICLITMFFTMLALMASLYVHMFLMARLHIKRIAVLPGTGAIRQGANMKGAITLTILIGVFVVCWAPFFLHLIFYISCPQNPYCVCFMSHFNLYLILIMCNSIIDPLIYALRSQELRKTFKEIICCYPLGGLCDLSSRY

Row | Molecule | Visual* 0.4 μM (inhibition of lipid granule formation) (human sebocytes [1]) | Visual* 0.8 μM (inhibition of lipid granule formation) (human sebocytes [1]) | inhibition at 0.4 µM (human sebocytes [2]) [%] | inhibition at 0.8 µM (human sebocytes [2]) [%] | pIC50 (MC5-R) | IC50 [3] [nM] | pEC50 (rabbit adipocytes) | effect on lipolysis [4] | pEC50 (rat adipocytes) | Percent Recovery of whisker movement D9 ([5]; D9, % of sham-operated side) [%] | Percent Recovery of whisker movement D10 ([5]; D10) [%] | Percent Recovery of whisker movement D11 ([5]; D11) [%] | Percent Recovery of whisker movement D12 ([5]; D12) [%] | Percent Recovery of whisker movement D13 ([5]; D13) [%] | Percent Recovery of whisker movement D14 ([5]; D14) [%]
1 | COc1ccccc1Nc1nc(-c2ccccc2OC)[n+](-c2ccccc2OC)s1 [Compound 76] | ++ (++ =50%) | +++ (+++ = 75%) | 48 | 88 | 6.50 | 332 | – | – | – | – | – | – | – | – | –
2 | COc1ccccc1-c1nc(Nc2ccccc2Cl)s[n+]1-c1ccccc1OC [Compound 80] | ++ (++ =50%) | ++++ (++++ = 100%) | 61 | 91 | 6.86 | 378 | – | – | – | – | – | – | – | – | –
3 | ACTH: melanocortin neuropeptide arising from pro-opiomelanocortin (POMC) (SYSMEHFRWGKPVGKKRRPVKVYPNGAEDESAEAFPLEF; Corticotropin; UniProt P01189 138-176, looked up) | – | – | – | – | – | – | 7.79 | very little effect on lipolysis | 8.87 | – | – | – | – | – | –
4 | α-MSH: alpha-melanocyte stimulating hormone peptide, used as a positive control [reference compound] | – | – | – | – | – | – | 8.43 | – | – | 2.0 | 24.6 | 60.1 | 93.8 | 98.1 | 100
